According to ChEMBL document CHEMBL3393039, “Anthranilic acid derivatives as nuclear receptor modulators--development of novel PPAR selective and dual PPAR/FXR ligands” (Bioorg Med Chem, 2015):
≈ marks a conversion by molar mass, not a printed value. Values belong to the compound of their own block, whether it stands above or below them. Calls of active or inactive are those of the source. No cut-off for these calls is given here.

Legend:
[1] = target: T1, Peroxisome proliferator-activated receptor delta (Homo sapiens) (UniProt Q03181); test: Transactivation of Gal4-tagged PPARdelta ligand binding domain (unknown origin) expressed in COS7 cells measured after overnight incubation by luciferase reporter gene assay relative to L165,041; type: cell-based; conditions: Chlorocebus aethiops; COS-7
T1 sequence (whole entry): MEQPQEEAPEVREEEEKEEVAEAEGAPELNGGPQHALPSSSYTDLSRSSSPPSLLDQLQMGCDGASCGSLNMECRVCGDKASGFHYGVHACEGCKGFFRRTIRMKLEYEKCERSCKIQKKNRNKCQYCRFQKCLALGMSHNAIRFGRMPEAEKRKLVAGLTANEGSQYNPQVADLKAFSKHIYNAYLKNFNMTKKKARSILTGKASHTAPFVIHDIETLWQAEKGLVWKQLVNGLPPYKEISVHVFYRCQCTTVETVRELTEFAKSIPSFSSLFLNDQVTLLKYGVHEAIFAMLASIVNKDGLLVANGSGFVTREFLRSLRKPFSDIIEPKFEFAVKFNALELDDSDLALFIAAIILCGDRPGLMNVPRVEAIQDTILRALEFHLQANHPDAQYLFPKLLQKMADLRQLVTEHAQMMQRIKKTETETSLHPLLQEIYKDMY

[2] = target: T2, Peroxisome proliferator-activated receptor delta (Homo sapiens, UniProt Q03181); test: Transactivation of Gal4-tagged PPARdelta ligand binding domain (unknown origin) expressed in COS7 cells measured after overnight incubation by luciferase reporter gene assay; type: cell-based, COS-7
T2 sequence (Q03181 whole entry): T1 sequence (whole entry)

[3] = target: T3, Peroxisome proliferator-activated receptor gamma (Homo sapiens) (UniProt P37231); test: Transactivation of Gal4-tagged PPARgamma ligand binding domain (unknown origin) expressed in COS7 cells at 10 uM measured after overnight incubation by luciferase reporter gene assay; type: cell-based; conditions: COS-7
T3 sequence (whole entry): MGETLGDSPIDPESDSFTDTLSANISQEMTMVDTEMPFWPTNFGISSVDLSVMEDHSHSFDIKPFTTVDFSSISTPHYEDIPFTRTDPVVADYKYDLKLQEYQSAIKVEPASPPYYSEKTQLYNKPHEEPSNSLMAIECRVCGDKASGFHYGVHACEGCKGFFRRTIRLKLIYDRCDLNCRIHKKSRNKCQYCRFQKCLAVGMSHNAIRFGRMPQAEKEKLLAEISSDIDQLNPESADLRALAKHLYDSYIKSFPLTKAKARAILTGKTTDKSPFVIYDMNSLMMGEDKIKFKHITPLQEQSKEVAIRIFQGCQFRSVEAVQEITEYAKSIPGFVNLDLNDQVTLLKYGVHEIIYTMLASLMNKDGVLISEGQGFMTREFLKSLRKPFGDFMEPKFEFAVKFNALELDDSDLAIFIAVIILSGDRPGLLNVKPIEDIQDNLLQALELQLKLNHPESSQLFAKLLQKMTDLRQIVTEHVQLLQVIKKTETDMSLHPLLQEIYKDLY

[4] = target: T4, Bile acid receptor (Homo sapiens) (UniProt Q96RI1); test: Transactivation of human FXR expressed in human HeLa cells at 30 uM incubated for 24 hrs by luciferase reporter gene assay; type: cell-based
T4 sequence (whole entry): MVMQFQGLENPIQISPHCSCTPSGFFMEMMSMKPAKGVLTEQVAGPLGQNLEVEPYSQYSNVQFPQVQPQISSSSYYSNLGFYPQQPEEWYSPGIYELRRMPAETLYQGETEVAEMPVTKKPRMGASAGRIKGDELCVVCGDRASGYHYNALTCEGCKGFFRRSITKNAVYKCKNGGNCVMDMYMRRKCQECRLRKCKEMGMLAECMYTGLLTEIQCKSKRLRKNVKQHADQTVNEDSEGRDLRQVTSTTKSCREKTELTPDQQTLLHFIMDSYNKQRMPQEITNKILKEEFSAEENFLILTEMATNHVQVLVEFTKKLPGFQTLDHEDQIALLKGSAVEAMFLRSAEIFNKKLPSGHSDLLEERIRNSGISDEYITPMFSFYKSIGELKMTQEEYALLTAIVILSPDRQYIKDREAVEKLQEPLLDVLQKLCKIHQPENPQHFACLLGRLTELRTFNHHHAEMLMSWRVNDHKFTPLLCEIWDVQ

[5] = target: T5, Peroxisome proliferator-activated receptor alpha (Homo sapiens) (UniProt Q07869); test: Transactivation of Gal4-tagged PPARalpha ligand binding domain (unknown origin) expressed in COS7 cells at 10 uM measured after overnight incubation by luciferase reporter gene assay; type: cell-based; conditions: COS-7
T5 sequence (whole entry): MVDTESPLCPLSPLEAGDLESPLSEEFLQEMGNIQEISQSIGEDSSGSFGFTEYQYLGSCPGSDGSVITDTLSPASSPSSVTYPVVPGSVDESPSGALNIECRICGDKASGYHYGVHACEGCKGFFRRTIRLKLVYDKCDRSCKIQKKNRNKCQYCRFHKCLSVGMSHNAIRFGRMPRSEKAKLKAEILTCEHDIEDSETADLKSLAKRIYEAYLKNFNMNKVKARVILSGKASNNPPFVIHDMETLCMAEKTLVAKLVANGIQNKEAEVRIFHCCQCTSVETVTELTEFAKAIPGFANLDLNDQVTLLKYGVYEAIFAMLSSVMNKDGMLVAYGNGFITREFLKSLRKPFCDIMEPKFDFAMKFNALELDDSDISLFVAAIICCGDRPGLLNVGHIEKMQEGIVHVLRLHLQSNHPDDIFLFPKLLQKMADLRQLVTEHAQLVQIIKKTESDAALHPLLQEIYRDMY

[6] = Cytotoxic activity against human HepG2 cells assessed as LDH release at 30 uM after 48 hrs by LDH release assay (reference value: 100%)
[7] = Antiproliferative activity against human HepG2 cells assessed as cell viability at 10 uM after 48 hrs by WST1 assay (reference value: 100%); type: cell-based; conditions: read-out: Activity
[8] = Aqueous solubility of the compound; type: physicochemical; conditions: aqueous medium (not specified further)
[9] = target: T3, Peroxisome proliferator-activated receptor gamma (Homo sapiens); test: Transactivation of Gal4-tagged PPARgamma ligand binding domain (unknown origin) expressed in COS7 cells measured after overnight incubation by luciferase reporter gene assay relative to piaglitazone; type: cell-based; conditions: Chlorocebus aethiops; COS-7
[10] = Antiproliferative activity against human HepG2 cells assessed as cell viability at 5 uM after 48 hrs by WST1 assay (reference value: 100%); type: cell-based; conditions: read-out: Activity
[11] = target: T1, Peroxisome proliferator-activated receptor delta (Homo sapiens); test: Transactivation of Gal4-tagged PPARdelta ligand binding domain (unknown origin) expressed in COS7 cells at 30 uM measured after overnight incubation by luciferase reporter gene assay; type: cell-based; conditions: COS-7
[12] = target: T4, Bile acid receptor (Homo sapiens); test: Transactivation of human FXR expressed in human HeLa cells incubated for 24 hrs by luciferase reporter gene assay relative to GW4064; type: cell-based
[13] = target: T6, Peroxisome proliferator-activated receptor gamma (Homo sapiens, UniProt P37231); test: Transactivation of Gal4-tagged PPARgamma ligand binding domain (unknown origin) expressed in COS7 cells measured after overnight incubation by luciferase reporter gene assay; type: cell-based, COS-7
T6 sequence (P37231 whole entry): T3 sequence (whole entry)

[14] = target: T7, Peroxisome proliferator-activated receptor alpha (Homo sapiens, UniProt Q07869); test: Transactivation of Gal4-tagged PPARalpha ligand binding domain (unknown origin) expressed in COS7 cells measured after overnight incubation by luciferase reporter gene assay; type: cell-based, COS-7
T7 sequence (Q07869 whole entry): T5 sequence (whole entry)

[15] = Antiproliferative activity against human HepG2 cells assessed as cell viability at 50 uM after 48 hrs by WST1 assay (reference value: 100%); type: cell-based; conditions: read-out: Activity
[16] = Cytotoxic activity against human HepG2 cells assessed as LDH release at 10 uM after 48 hrs by LDH release assay (reference value: 100%)
[17] = Cytotoxic activity against human HepG2 cells assessed as LDH release at 5 uM after 48 hrs by LDH release assay (reference value: 100%)
[18] = target: T5, Peroxisome proliferator-activated receptor alpha (Homo sapiens); test: Transactivation of Gal4-tagged PPARalpha ligand binding domain (unknown origin) expressed in COS7 cells at 30 uM measured after overnight incubation by luciferase reporter gene assay; type: cell-based; conditions: COS-7
Bile acid receptor = target: T8, Bile acid receptor (Homo sapiens, UniProt Q96RI1); test: Transactivation of human FXR expressed in human HeLa cells incubated for 24 hrs by luciferase reporter gene assay; type: cell-based
T8 sequence (Q96RI1 whole entry): T4 sequence (whole entry)

Homo sapiens [19] = organism: Homo sapiens; test: Selectivity index, ratio of EC50 for Gal4-tagged PPARalpha ligand binding domain (unknown origin) to EC50 for human FXR
Homo sapiens [20] = organism: Homo sapiens; test: Selectivity index, ratio of EC50 for Gal4-tagged PPARdelta ligand binding domain (unknown origin) to EC50 for human FXR
Homo sapiens [21] = organism: Homo sapiens; test: Selectivity index, ratio of EC50 for Gal4-tagged PPARgamma ligand binding domain (unknown origin) to EC50 for human FXR
[22] = target: T4, Bile acid receptor (Homo sapiens); test: Antagonist activity against human FXR expressed in human HeLa cells incubated for 24 hrs by luciferase reporter gene assay; type: cell-based

Compound: COc1ccc(C(=O)Nc2ccccc2C(=O)Nc2cccc(CC(=O)O)c2)cc1
max activation [1]: 54%
EC50 [2]: 5.9 µM
max activation [3]: 13.2%
Activity [4]: inactive
max activation [5]: 17.3%

Compound: Cc1ccc(NC(=O)c2ccccc2NC(=O)c2ccc(C(C)(C)C)cc2)cc1C(=O)O
LDH release (% cytotoxicity) at 48 h, 30 µM [6]: 28.4%
viability at 48 h, 10 µM [7]: 99.6%
solubility [8]: 4.9 µM (≈ 2.11 µg/mL)
max activation [9]: 98%
viability at 48 h, 5 µM [10]: 106%
Activity [11]: inactive
max activation [12]: 22%
EC50 [13]: 5 µM
EC50 [14]: 0.21 µM
viability at 48 h, 50 µM [15]: 82.5%
LDH release (% cytotoxicity) at 48 h, 10 µM [16]: 2.2%
LDH release (% cytotoxicity) at 48 h, 5 µM [17]: -0.1%

Compound: O=C(O)Cc1cccc(NC(=O)c2ccccc2NC(=O)c2ccc(-c3ccccc3)cc2)c1
max activation [1]: 175%
EC50 [2]: 6.4 µM
LDH release (% cytotoxicity) at 48 h, 30 µM [6]: 72.9%
viability at 48 h, 10 µM [7]: 79.5%
EC50 (Bile acid receptor): 0.7 µM
solubility [8]: 1.7 µM (≈ 0.766 µg/mL)
max activation [9]: 125%
viability at 48 h, 5 µM [10]: 96.5%
max activation [12]: 18.8%
EC50 [13]: 2.6 µM
EC50 [14]: 3 µM
viability at 48 h, 50 µM [15]: 33.6%
LDH release (% cytotoxicity) at 48 h, 10 µM [16]: -1%
LDH release (% cytotoxicity) at 48 h, 5 µM [17]: -4.5%

Compound: O=C(O)CCCCCNC(=O)c1ccccc1NC(=O)c1ccc2ccccc2c1
max activation [3]: 40%
Activity [11]: inactive
max activation [5]: 38%

Compound: O=C(O)Cc1ccc(NC(=O)c2ccccc2NC(=O)c2ccc3ccccc3c2)cc1
max activation [3]: 25%
Activity [18]: inactive
Activity [11]: inactive

Compound: CCc1ccc(C(=O)Nc2ccccc2C(=O)NCCCC(=O)O)cc1
max activation [3]: 39%
Activity [11]: inactive
EC50 [14]: 15.7 µM

Compound: O=C(O)c1ccc(CNC(=O)c2ccccc2NC(=O)c2ccc3ccccc3c2)cc1
max activation [3]: 56%
Activity [11]: inactive
max activation [5]: 17%

The next lines start with results.

solubility [8]: 2.6 µM (≈ 1.12 µg/mL)
Activity [4]: inactive
Activity [18]: inactive
max activation [9]: 163%
Activity [11]: inactive
EC50 [13]: 6.3 µM
Compound: Cc1ccc(C(=O)O)cc1NC(=O)c1ccccc1NC(=O)c1ccc(C(C)(C)C)cc1
LDH release (% cytotoxicity) at 48 h, 30 µM [6]: 37.3%
viability at 48 h, 10 µM [7]: 92.2%
viability at 48 h, 5 µM [10]: 95.7%
viability at 48 h, 50 µM [15]: 72%
LDH release (% cytotoxicity) at 48 h, 10 µM [16]: 0.7%
LDH release (% cytotoxicity) at 48 h, 5 µM [17]: -1.3%

EC50 (Bile acid receptor): 0.12 µM
Ratio EC50 (Homo sapiens [19]): 100
Ratio EC50 (Homo sapiens [20]): 100
max activation [9]: 256%
Ratio EC50 (Homo sapiens [21]): 75
Activity [11]: inactive
max activation [12]: 22%
EC50 [13]: 9 µM
max activation [5]: 44%
Compound: CC(C)(C)c1ccc(C(=O)Nc2cc(Cl)ccc2C(=O)Nc2cccc(C(=O)O)c2)cc1

inhibition [22]: Active
max activation [9]: 132%
Activity [11]: inactive
EC50 [13]: 5.4 µM
max activation [5]: 18%
Compound: CC(C)(C)c1ccc(C(=O)Nc2ccc(Cl)cc2C(=O)Nc2cccc(C(=O)O)c2)cc1
